Reference: PubChem BioAssay AID1963832 (Molecular Pharmacology Branch, DTP, NCI, 2024)
Values joined by “and” are separate entries in the source; they are usually repeats but may differ in a detail not shown here. Equal values may be shown once.

Test system: 885724-159-R-J1-PDC complex spheroid viability
Assay: Anticancer human tumor 885724-159-R-J1-PDC patient-derived pancreatic adenocarcinoma cell line growth inhibition [POLQ]
Settings: for viability, T/C: stronger effect = lower value; active = viability on the fitted dose curve at most 10% of control; inactive = the rest
Method: Multicellular complex tumor spheroid response to Polymerase (POL) inhibitors (novobiocin, ART-558, RP6685) in combination with a variety of drugs and investigational agents in selected tumor cell lines
The POL inhibitors (novobiocin, ART-558, and RP6685) were evaluated both individually and in combination with standard of care and investigational anticancer small molecules within a complex spheroid model of solid tumors. . Complex spheroids include a stromal component modeled by human endothelial cells (HUVEC) and fibroblasts modeled by human mesenchymal stem cells (MSCs). The concentration ranges selected for each drug and investigational agent were based upon clinically achievable concentrations if the clinical Cmax of the agent was known.
Compounds. The drugs and investigational agents: novobiocin (NSC847541), ART-558 (NSC835418), RP-6685 (NSC848927), peposertib (NSC802822), ceralasertib (NSC780249), elimusertib (NSC800525), camonsertib (NSC841442), AZD-1390 (NSC803789), olaparib (NSC753686), talazoparib (NSC767125), rucaparib (NSC756644), sotorasib (NSC818433), MRTX-1133 (NSC836407), SN-38 (NSC673596), topotecan (NSC609699), epotoside (NSC141540), doxorubicin (NSC123127), gemcitabine (NSC613327), 5-fluorouracil (NSC19893), paclitaxel (NSC125973), vemurafenib (NSC761431), MSA-2 (NSC828583), SN-011 (NSC837082), adavosertib (NSC754352), prexasertib (NSC758257), carboplatin (NSC241240) and oxaliplatin (NSC266046), were obtained from the National Cancer Institute (NCI) Developmental Therapeutics Program Chemical Repository (21). The FDA-approved anticancer drug set is available from the Developmental Therapeutics Program at https://dtp.cancer.gov/organization/dscb/obtaining/. […] The stock solutions were prepared in dimethyl sulfoxide (DMSO, Sigma-Aldrich, St. Louis, MO, cat. D2650), except for the platinum compounds which were prepared in saline (Quality Biological, Gaithersburg, MD, cat. 114-055-101), at 800-fold the tested concentration and stored at -70 degrees C prior to their use. All drugs and investigational agents were tested over a range starting from a high concentration at or near the clinical Cmax and decreasing in half-log increments. If the clinical Cmax for an agent had not been determined, the highest concentration tested was 10 microM, except for SN-38, which was tested at a high concentration of 1 microM.
Cell Culture. All cells were maintained in an incubator at 37 degrees C and 5% CO2 with 95% humidity. The PDC lines were cultured according to standard operating procedures established by the NCI PDMR (https://pdmr.cancer.gov). Table 3 of the manuscript, lists the cell lines along with the number of the three cell types plated to form the mct-spheroids and media for tumor cell growth. After thawing, all PDC lines, except 997537-175-T-J1-PDC and 415267-285-R-J2-PDC, were cultured in Matrigel-coated flasks prepared with a working solution of 1X Ham's F-12 nutrient mix, without supplementation (Thermo Fisher Scientific, cat. 11765054), 100 U/mL penicillin-streptomycin (Thermo Fisher Scientific, cat. 15140122), and 2.5% Matrigel (Corning Inc., Corning, NY, cat. 354248) for the first three passages. The two PDC lines 997537-175-T-J1-PDC and 415267-285-R-J2-PDC were cultured on uncoated flasks. The 857933-349-R-J2-PDC line was cultured in 6C/Colon 1B media containing advanced DMEM/F-12 (Thermo Fisher Scientific, cat. 12634028), 10 mM HEPES (Thermo Fisher Scientific, cat. 15630080), 1X GlutaMAX supplement (Thermo Fisher Scientific, cat. 35050061), 0.1 mg/mL primocin (InvivoGen, San Diego, CA, cat. ant-pm-2), 10% defined fetal bovine serum, heat inactivated (HyClone Laboratories Inc., Logan, UT, cat. SH30070.03HI), 50% L-WRN conditioned media (ATCC, cat. CRL-3276), 1.25 mM N-Acetyl-L-cysteine (Sigma-Aldrich, cat. A9165), 10 mM nicotinamide (Sigma-Aldrich, cat. N0636), 1X B-27 supplement (Thermo Fisher Scientific, cat. 17504044), 1X N-2 supplement (Thermo Fisher Scientific, cat. […]
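Note: spheroids exposed to compounds for 7 days.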

COc1cc2cc(C(=O)CCC(=O)O)sc2cc1OC
inactive: viability, T/C (compound 0.0316 µM) 102% and 90.8% and 94.2% | viability, T/C (compound 0.1 µM) 96.9% and 97.3% and 92% | viability, T/C (compound 0.316 µM) 98.9% and 97.8% and 108% | viability, T/C (compound 1 µM) 96.4% and 105% and 95.9% | viability, T/C (compound 3.16 µM) 103% and 99% and 107% | viability, T/C (compound 10 µM) 94.9% and 89% and 90.3%
> 10000 nM: IC50 (curve of compound)

COc1ccc([C@@H](O)c2cc(-c3ncnc4cc(N5CCOCC5)ccc34)c(F)cc2Cl)nn1
inactive: viability, T/C (compound 0.0316 µM) 94% and 96% and 96.8% | viability, T/C (compound 0.1 µM) 79.5% and 83.5% and 87.4% | viability, T/C (compound 0.316 µM) 86.8% and 78% and 76% | viability, T/C (compound 1 µM) 71.7% and 68.9% and 70.9% | viability, T/C (compound 3.16 µM) 59% and 58.1% and 55% | viability, T/C (compound 10 µM) 35.5% and 33% and 38.2%
4860 nM and 4080 nM and 4450 nM: IC50 (curve of compound)

O=C(Nc1ccc(O)c(NS(=O)(=O)c2ccc(F)cc2)c1)c1ccc(-c2ccccc2)cc1
inactive: viability, T/C (compound 0.0316 µM) 98% and 103% and 91.6% | viability, T/C (compound 0.1 µM) 107% and 100% and 93.8% | viability, T/C (compound 0.316 µM) 101% and 88.4% and 88.6% | viability, T/C (compound 1 µM) 100% and 110% and 97.2% | viability, T/C (compound 3.16 µM) 112% and 118% and 108% | viability, T/C (compound 10 µM) 117% and 97.2% and 76%
> 10000 nM: IC50 (curve of compound)

COc1cccc2c1C(=O)c1c(O)c3c(c(O)c1C2=O)CC(O)(C(=O)CO)CC3OC1CC(N)C(O)C(C)O1 (stereo not drawn) + COC1C(OC(N)=O)C(O)C(Oc2ccc3c(O)c(NC(=O)c4ccc(O)c(CC=C(C)C)c4)c(=O)oc3c2C)OC1(C)C
201 nM: IC50 (curve of first compound, second compound 0.316 µM)
197 nM: IC50 (curve of first compound, second compound 3.16 µM)
204 nM: IC50 (curve of first compound, second compound 0.1 µM)
192 nM: IC50 (curve of first compound, second compound 1 µM)
active: viability, T/C (second compound 0.0316 µM, first compound 1 µM) 11.6% | viability, T/C (second compound 0.0316 µM, first compound 3.16 µM) 6% | viability, T/C (second compound 0.0316 µM, first compound 10 µM) 7.47% | viability, T/C (second compound 0.1 µM, first compound 1 µM) 10.3% | viability, T/C (second compound 0.1 µM, first compound 3.16 µM) 5.36% | viability, T/C (second compound 0.1 µM, first compound 10 µM) 7.37% | viability, T/C (second compound 0.316 µM, first compound 1 µM) 9.53% | viability, T/C (second compound 0.316 µM, first compound 3.16 µM) 5.31% | viability, T/C (second compound 0.316 µM, first compound 10 µM) 7.84% | viability, T/C (second compound 1 µM, first compound 1 µM) 10.3% | viability, T/C (second compound 1 µM, first compound 3.16 µM) 5.98% | viability, T/C (second compound 1 µM, first compound 10 µM) 7.87% | viability, T/C (second compound 3.16 µM, first compound 1 µM) 7.45% | viability, T/C (second compound 3.16 µM, first compound 3.16 µM) 6% | viability, T/C (second compound 3.16 µM, first compound 10 µM) 7.69% | viability, T/C (second compound 10 µM, first compound 1 µM) 7.9% | viability, T/C (second compound 10 µM, first compound 3.16 µM) 6.39% | viability, T/C (second compound 10 µM, first compound 10 µM) 7.8%
inactive: viability, T/C (second compound 0.0316 µM, first compound 0.0316 µM) 71.6% | viability, T/C (second compound 0.0316 µM, first compound 0.1 µM) 91.5% | viability, T/C (second compound 0.0316 µM, first compound 0.316 µM) 31.9% | viability, T/C (second compound 0.1 µM, first compound 0.0316 µM) 71% | viability, T/C (second compound 0.1 µM, first compound 0.1 µM) 89.4% | viability, T/C (second compound 0.1 µM, first compound 0.316 µM) 31.5% | viability, T/C (second compound 0.316 µM, first compound 0.0316 µM) 71% | viability, T/C (second compound 0.316 µM, first compound 0.1 µM) 93.2% | viability, T/C (second compound 0.316 µM, first compound 0.316 µM) 29% | viability, T/C (second compound 1 µM, first compound 0.0316 µM) 65% | viability, T/C (second compound 1 µM, first compound 0.1 µM) 90.5% | viability, T/C (second compound 1 µM, first compound 0.316 µM) 28.9% | viability, T/C (second compound 3.16 µM, first compound 0.0316 µM) 69.5% | viability, T/C (second compound 3.16 µM, first compound 0.1 µM) 92% | viability, T/C (second compound 3.16 µM, first compound 0.316 µM) 28.7% | viability, T/C (second compound 10 µM, first compound 0.0316 µM) 64.2% | viability, T/C (second compound 10 µM, first compound 0.1 µM) 85.7% | viability, T/C (second compound 10 µM, first compound 0.316 µM) 32.2%
196 nM: IC50 (curve of first compound, second compound 10 µM)
208 nM: IC50 (curve of first compound, second compound 0.0316 µM)
